Results on two compounds are retold here after US20060074098A1, “Methods of treatment of amyloidosis using ethanolcyclicamine aspartyl protease inhibitors” (priority 2004, published 2006).

Experiment [1] relates to catD / beta-secretase (BACE). The experiment is described as follows: CatD/BACE selectivity (ratio of IC50 values). Format: biochemical. The conditions noted are these: each value is an average of four experimental runs; multiple values = more than one experiment. The protocol: (§1) Investigation of potential beta-secretase inhibitors produced compounds with increased selectivity for beta-secretase over other aspartyl proteases such as cathepsin D (catD), cathepsin E (catE), Human Immunodeficiency Viral (HIV) protease, and renin. Selectivity was calculated as a ratio of inhibition (IC50) values in which the inhibition of beta-secretase was compared to the inhibition of other aspartyl proteases.
The compounds of formula (I) can be selective for beta-secretase versus catD.
(§2) In the following examples, each value is an average of four experimental runs and multiple values for one compound indicate that more than one experiment was conducted.

Experiment [2] concerns catE / beta-secretase (BACE). The experiment is described as follows: CatE/BACE selectivity (ratio of IC50 values). In kind it is biochemical. The note with it: each value is an average of four experimental runs, multiple values = more than one experiment. The protocol: as §1
The compounds of formula (I) can be selective for beta-secretase versus catE. […] Selectivity is reported as the ratio of IC50(catE):IC50(BACE).
as §2

Several values for one entry are separate records, joined by “and”; a condition that tells them apart may be missing. Equal entries are not always repeated.

With `CC(=O)NC(Cc1cc(F)cc(F)c1)C(O)C1CC2CCCCC2CN1` (stereo not shown) [Example 8.2, N-(1-(decahydroisoquinolin-3-yl)-3-(3,5-difluorophenyl)-1-hydroxypropan-2-yl)acetamide], in experiment [1], the “Selectivity IC50 catD/IC50 BACE” value is on record as greater than 3.3. Also, in experiment [2], the “Selectivity IC50 catE/IC50 BACE” value is recorded as greater than 3.3.

Turning to `CCCC1CCNC(C(O)C(Cc2cc(F)cc(F)c2)NC(C)=O)C1` (stereo not shown) [Example 8.1, N-[1-(3,5-Difluoro-benzyl)-2-hydroxy-2-(4-propylpiperidin-2-yl)-ethyl]-acetamide], the “Selectivity IC50 catD/IC50 BACE” value in experiment [1] is > 2.9 and > 2.4. For the same compound, the “Selectivity IC50 catE/IC50 BACE” value in experiment [2] (listed as 8.3) was > 2.9 and > 2.4.
